In PMC12385050, “Novel Neuroactive Steroid Analogs and Voltage-Dependent Blockers of CaV3.2 Currents, B372 and YX23, Are Effective Anti-Nociceptives with Diminished Sedative Properties in Intact Female Mice” (Biomolecules, 2025):

Legend:
CaV3.2 [1] = target: T1, CaV3.2 (Homo sapiens, UniProt O95180); experiment: whole-cell patch clamp, percent inhibition of peak current at […]; type: cell-based
T1 construct: gene CACNA1H; human CaV3.2 channels stably expressed in HEK-293 cells

CaV3.2 [2] = target: T1, CaV3.2; experiment: whole-cell patch clamp, concentration-response of peak T-current; type: cell-based

T1 sequence (O95180 whole entry): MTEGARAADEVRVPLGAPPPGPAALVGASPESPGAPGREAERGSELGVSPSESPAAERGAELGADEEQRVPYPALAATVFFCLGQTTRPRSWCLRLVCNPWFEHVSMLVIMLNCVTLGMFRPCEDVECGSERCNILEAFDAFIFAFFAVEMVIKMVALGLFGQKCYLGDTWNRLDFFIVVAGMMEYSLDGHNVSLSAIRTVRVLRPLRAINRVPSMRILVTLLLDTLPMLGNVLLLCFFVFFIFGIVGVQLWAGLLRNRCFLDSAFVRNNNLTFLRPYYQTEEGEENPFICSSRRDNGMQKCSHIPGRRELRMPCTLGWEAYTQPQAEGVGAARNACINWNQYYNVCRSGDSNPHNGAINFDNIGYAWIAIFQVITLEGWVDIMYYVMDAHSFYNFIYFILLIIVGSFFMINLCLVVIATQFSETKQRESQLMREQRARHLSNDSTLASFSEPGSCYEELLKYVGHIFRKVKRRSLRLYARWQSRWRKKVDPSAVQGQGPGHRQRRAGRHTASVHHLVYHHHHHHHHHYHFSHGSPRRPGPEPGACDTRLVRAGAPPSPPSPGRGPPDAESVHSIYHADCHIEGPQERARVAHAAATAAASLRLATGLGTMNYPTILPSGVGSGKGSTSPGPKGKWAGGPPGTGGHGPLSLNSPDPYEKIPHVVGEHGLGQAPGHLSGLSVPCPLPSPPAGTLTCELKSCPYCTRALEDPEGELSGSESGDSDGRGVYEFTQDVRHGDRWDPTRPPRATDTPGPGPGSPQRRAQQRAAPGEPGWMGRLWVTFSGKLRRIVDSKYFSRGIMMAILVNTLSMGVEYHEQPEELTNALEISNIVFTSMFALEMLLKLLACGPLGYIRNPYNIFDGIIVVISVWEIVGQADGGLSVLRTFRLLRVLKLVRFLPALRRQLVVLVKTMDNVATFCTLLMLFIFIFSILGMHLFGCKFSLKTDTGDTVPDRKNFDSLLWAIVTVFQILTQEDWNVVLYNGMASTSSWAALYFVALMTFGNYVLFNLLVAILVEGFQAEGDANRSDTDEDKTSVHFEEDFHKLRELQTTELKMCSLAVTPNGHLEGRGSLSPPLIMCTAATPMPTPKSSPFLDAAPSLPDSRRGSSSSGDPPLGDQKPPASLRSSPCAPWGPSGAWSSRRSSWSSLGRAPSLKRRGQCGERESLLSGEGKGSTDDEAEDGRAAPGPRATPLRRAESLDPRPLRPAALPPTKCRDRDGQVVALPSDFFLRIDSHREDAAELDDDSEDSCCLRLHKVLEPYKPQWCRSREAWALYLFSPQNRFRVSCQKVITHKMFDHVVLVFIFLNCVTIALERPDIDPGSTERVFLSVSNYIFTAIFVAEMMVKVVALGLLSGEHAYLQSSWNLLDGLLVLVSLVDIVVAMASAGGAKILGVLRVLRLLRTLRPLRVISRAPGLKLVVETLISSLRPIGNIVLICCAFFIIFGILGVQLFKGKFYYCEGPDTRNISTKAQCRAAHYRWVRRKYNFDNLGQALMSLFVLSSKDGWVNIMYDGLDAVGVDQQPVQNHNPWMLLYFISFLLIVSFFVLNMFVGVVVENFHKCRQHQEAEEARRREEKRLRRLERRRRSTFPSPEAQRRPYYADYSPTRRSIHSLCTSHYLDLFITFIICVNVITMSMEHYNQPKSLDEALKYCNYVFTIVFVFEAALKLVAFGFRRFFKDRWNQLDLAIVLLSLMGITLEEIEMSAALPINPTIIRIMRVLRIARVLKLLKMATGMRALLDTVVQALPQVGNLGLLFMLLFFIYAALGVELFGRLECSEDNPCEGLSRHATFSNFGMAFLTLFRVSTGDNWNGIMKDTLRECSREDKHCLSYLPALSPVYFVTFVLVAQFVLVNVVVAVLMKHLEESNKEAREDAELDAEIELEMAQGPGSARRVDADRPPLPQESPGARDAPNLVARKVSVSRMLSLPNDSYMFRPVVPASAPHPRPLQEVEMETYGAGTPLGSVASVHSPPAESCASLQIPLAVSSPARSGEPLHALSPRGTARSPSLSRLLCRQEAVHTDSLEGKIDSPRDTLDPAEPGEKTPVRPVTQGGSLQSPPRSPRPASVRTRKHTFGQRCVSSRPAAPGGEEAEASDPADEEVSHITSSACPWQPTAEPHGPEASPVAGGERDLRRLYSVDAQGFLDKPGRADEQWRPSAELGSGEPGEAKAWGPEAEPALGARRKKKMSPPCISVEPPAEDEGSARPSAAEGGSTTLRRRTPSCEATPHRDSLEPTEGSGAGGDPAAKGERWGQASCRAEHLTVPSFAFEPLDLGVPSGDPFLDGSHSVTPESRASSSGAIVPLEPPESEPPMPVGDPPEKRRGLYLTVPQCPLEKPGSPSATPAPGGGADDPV

Row | Structure (SMILES) | inhibition at 10 µM (CaV3.2 [1]) [%] | IC50 (CaV3.2 [2]) [µM]
1 | C[C@]12CC[C@H](O)C[C@H]1CC[C@@H]1[C@@H]2CC[C@]2(C)[C@@H](C#N)CC[C@@H]12 [3β-OH, (3β,5β,17β)-3-hydroxyandrostane-17-carbonitrile] | 48.2 ± 4.2 | 
2 | C[C@]12CC[C@H](O)C[C@@H]1CC[C@@H]1[C@@H]2CC[C@]2(C)[C@@H](C#N)CC[C@@H]12 [compound 6, (3β,5α,17β)-3-Hydroxyandrostan-17-carbonitrile] |  | 3.8
3 | CO[C@H]1CC[C@H]2[C@@H](CC[C@@H]3[C@@H]2CC[C@]2(C)[C@@H](O)CC[C@@H]32)C1 [compound 6, (3β,5α,17β)-3-Methoxyestran-17-ol] |  | 2.4
4 | C[C@]12CC[C@H]3[C@@H](CC[C@H]4C[C@@H](C#N)CC[C@@H]43)[C@@H]1CC[C@@H]2O [ECN, (3β,5α,17β)-17-hydroxyestrane-3-carbonitrile] | 47.4 ± 5.2 | 
